Measurements: the supplement of paper PMC10307832

What was measured:
Test in all cases: relative viability (nuclei count vs DMSO), 5 days (fraction); higher = more cells survive
[1] = compound: Cc1ccc2nc(NCCN)c3ncc(C)n3c2c1 + NC(=O)Nc1cc(-c2cccc(F)c2)sc1C(=O)N[C@H]1CCCNC1 [AZD7762] (partner 0.2 µM)
Summary of the method: (§1)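 Medians of duplicate plates are given as relative viability. That measure is the nuclei count in treated wells divided by the count in vehicle wells. Counts were taken on 4× images of lung cancer cell lines in 1536-well plates, 5 days after pin-tool dosing the day after seeding with one drug alone or a fixed anchor-drug dose plus five library-drug doses (not always all listed) in √10 steps.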

[2] = compound: Cc1ccc2nc(NCCN)c3ncc(C)n3c2c1 + CCNC(=O)c1noc(-c2cc(C(C)C)c(O)cc2O)c1-c1ccc(CN2CCOCC2)cc1 [Luminespib] (partner 0.01 µM)
Summary of the method: as §1

Salubrinal + Palbociclib = compound: O=C(/C=C/c1ccccc1)NC(NC(=S)Nc1cccc2cccnc12)C(Cl)(Cl)Cl [Salubrinal] + CC(=O)c1c(C)c2cnc(Nc3ccc(N4CCNCC4)cn3)nc2n(C2CCCC2)c1=O [Palbociclib] (partner 0.5 µM)
Summary of the method: as §1

[3] = compound: Cc1ccc2nc(NCCN)c3ncc(C)n3c2c1 + CC(=O)c1c(C)c2cnc(Nc3ccc(N4CCNCC4)cn3)nc2n(C2CCCC2)c1=O [Palbociclib] (partner 0.5 µM)
Summary of the method: as §1

Cell Line	relative viability ([1]; first compound 0.04 µM)	relative viability ([1]; first compound 0.1265 µM)	relative viability ([1]; first compound 1.265 µM)	relative viability ([1]; first compound 4 µM)	relative viability ([2]; first compound 0.04 µM)	relative viability ([2]; first compound 0.1265 µM)	relative viability ([2]; first compound 0.4 µM)	relative viability ([2]; first compound 1.265 µM)	relative viability ([2]; first compound 4 µM)	relative viability (Salubrinal + Palbociclib; first compound 0.08 µM)	relative viability (Salubrinal + Palbociclib; first compound 0.253 µM)	relative viability (Salubrinal + Palbociclib; first compound 0.8 µM)	relative viability (Salubrinal + Palbociclib; first compound 2.53 µM)	relative viability (Salubrinal + Palbociclib; first compound 8 µM)	relative viability ([3]; first compound 0.04 µM)	relative viability ([3]; first compound 0.1265 µM)	relative viability ([3]; first compound 0.4 µM)	relative viability ([3]; first compound 1.265 µM)	relative viability ([3]; first compound 4 µM)	relative viability ([1]; first compound 0.4 µM)
NCI-H1703	0.131	0.114	0.111	0.132																
SK-LU-1					0.225	0.248	0.191	0.199	0.212	0.368	0.377	0.411	0.427	0.341	0.412	0.383	0.385	0.393	0.38	
COR-L 105					0.921	0.529	0.603	0.57	0.497	0.311	0.405	0.364	0.408	0.385	0.374	0.414	0.43	0.4	0.438	
HCC-366	0.272	0.278	0.228	0.239						0.464		0.44	0.385	0.315	0.409	0.392	0.343	0.382	0.352	0.318
NCI-H1648	0.687	0.682	0.709	0.737						0.255	0.258	0.252	0.22	0.236	0.272	0.27	0.237	0.25	0.282	0.587
NCI-H596	1.07	1.08	0.915	1.11	1.12	0.959	0.967	0.215	1.05											1.04
NCI-H2228					0.147	0.149	0.181	0.145	0.149	0.613		1.04	0.752	0.567	0.649	0.763	0.908	0.782	0.648	
SW 1573					0.287	0.185	0.204	0.151	0.106	0.445	0.355	0.378	0.374	0.3	0.396	0.461	0.399	0.428	0.134	
NCI-H661					0.932	0.94	0.929	0.98	0.8	0.424	0.436	0.412	0.412	0.398	0.423	0.452	0.407	0.439	0.477	
NCI-H1623					0.478	0.684	0.51	0.346	0.348											
NCI-H520					0.204	0.216	0.231	0.191	0.235	0.25	0.225	0.23	0.21	0.271	0.233	0.222	0.215	0.212	0.243	
NCI-H2023					0.782	0.68	0.764	0.782	0.264	0.346	0.32	0.359	0.419	0.328	0.369	0.366	0.366	0.433	0.238	
NCI-H2009					1.03	1	1.05	1.01	0.792	0.224	0.171	0.197	0.225	0.172	0.238	0.202	0.245	0.275	0.295	
